{"source": "patent EP2681209B1", "about": "“COMPOUNDS AND METHODS FOR THE TREATMENT OF PAIN AND OTHER DISORDERS” (Aquilus Pharmaceuticals, Inc, priority 2011, dated 2012)", "key": {"CD-1 mice": {"tested_on": "CD-1 mice", "assay": "Naloxone-precipitated morphine withdrawal mouse study, intrathecal administration", "type": "in vivo", "details": "i.t. 10 µl/mouse every 8 hours for 2.5 days with escalating IP morphine; naloxone 1 mg/kg s.c.; compared to control and vehicle", "from_the_text": "One can measure the effects of intrathecal (i.t.) or intraparitoneal (i.p.) administration of a matrix metallorproteinase (MMP) inhibitor in a mouse model of morphine analgesia, tolerance and withdrawal. The purpose of which is to measure the effects of a MMP inhibitor on 1) attenuating morphine tolerance in mice and 2) withdrawal behavior in naloxone-precipitated morphine withdrawal in mice. The animal model which was developed in the 1960's and refined in the early 1970's utilizes the opioid antagonist, naloxone to rapidly block the µ-opioid receptor to \"precipitate\" withdrawal behavior in rodents (Zachariou, V. et al.; Essential role for RGS9 in opiate action, PNAS, 100(23), p 13656-13661, (2003)). […]\nDrug Administration & Morphine withdrawal Studies: The matrix metalloproteinase (MMP) inhibitors were dissolved in phosphate buffered saline (PBS) and dimethylsulfoxide (DMSO) and diluted in PBS (final concentration of DMSO for intrathecal administration was 10%). […] Two hours after the last morphine injection, naloxone (1 mg/kg) was administered s.c. Withdrawal behaviors were then monitored for 30 min, 1 hr after the naloxone injection. […]\nMMP inhibitor effects on morphine withdrawal For testing the morphine withdrawal-like behavioral signs following intrathecal MMP inhibitor administration, the withdrawal symptoms were monitored for 30 minutes 1-2 h after naloxone administration. […]"}, "MMP-9": {"tested_on": "MMP-9", "assay": "Gelatin zymography of mouse spinal cord for MMP-9 rebound effect", "type": "in vivo, mice", "from_the_text": "There were three groups in the study comprising six mice for each group (Naive, control and compound 10 groups)."}, "MMP-2": {"tested_on": "MMP-2", "assay": "Gelatin zymography of mouse spinal cord for MMP-2 rebound effect", "type": "in vivo, mice"}, "[1]": {"assay": "In-vitro microsomal stability in mouse microsomes", "type": "in vitro ADME", "details": "1 µM compound, mouse microsomes 0.3 mg/mL, at T = 60 minutes; for %Mean Remaining Parent without NADPH (%): control omitting NADPH", "experimental": "(§1) Human and mouse microsomal stability was determined for select compounds following the method of Houston (Houston, JB; Biochem. Pharmacol. 47, (1994),1469).\n(§2) 1 µM concentration of compound and seperate human and mouse microsomes (0.3 mg/mL, BD bioscience) were used in the in-vitro assay. To ensure proper energy supply for microsomal degradation of compound, an energy regenerating system comprised of 100 mM potassium phosphate, 2mM NADPH, 3mM MgCl2, pH = 7.4. and the microsomal protein is added to each sample and the resulting suspension is then incubated in duplicate for 60 min at 37° C. in a rotary shaker. A control is run for each test agent in duplicate omitting NADPH to detect NADPH-free degradation. At T=0 and T= 60 min., an aliquot is removed from each experimental and control reaction and then mixed with an equal volume of ice-cold Stop Solution (consisting of 0.3% acetic acid in acetonitrile containing haloperidol and diclofenac as internal standards). Stopped reactions are then incubated for at least ten minutes at -20 °C, and an additional volume of water is then be added. The samples are then centrifuged to remove precipitated protein, and the supernatants are then analyzed by LC-MS/MS to determine the percentage of compound remaining. The LC-MS/MS system used was an Agilent 6410 mass spectrometer coupled with an Agilent 1200 HPLC and a CTC PAL chilled autosampler, all controlled by MassHunter software (Agilent), or an ABI2000 mass spectrometer coupled with an Agilent 1100 HPLC and a CTC PAL chilled autosampler, all controlled by Analyst software (ABI). After separation on a C18 reverse phase HPLC column (Agilent, Waters, or equivalent) using an acetonitrile-water gradient system, peaks were analyzed by mass spectrometry (MS) using ESI ionization in MRM mode."}, "[2]": {"assay": "In-vitro microsomal stability in human microsomes", "type": "in vitro ADME", "details": "1 µM compound, human microsomes 0.3 mg/mL", "experimental": "as §1\nas §2, with “Stopped reactions are then incubated for at least ten minutes at -20 °C, and an additional volume of water is then be added.” left out, “The LC-MS/MS system used was an Agilent 6410 mass spectrometer coupled with an Agilent 1200 HPLC and a CTC PAL chilled autosampler, all controlled by MassHunter software (Agilent), or an ABI2000 mass spectrometer coupled with an Agilent 1100 HPLC and a CTC PAL chilled autosampler, all controlled by Analyst software (ABI).” left out"}, "[3]": {"molecular_target": "Catalytic domain of MMP-9 (human recombinant) (Homo sapiens, UniProt P14780)", "sequence (P14780 107-444 limits assumed)": "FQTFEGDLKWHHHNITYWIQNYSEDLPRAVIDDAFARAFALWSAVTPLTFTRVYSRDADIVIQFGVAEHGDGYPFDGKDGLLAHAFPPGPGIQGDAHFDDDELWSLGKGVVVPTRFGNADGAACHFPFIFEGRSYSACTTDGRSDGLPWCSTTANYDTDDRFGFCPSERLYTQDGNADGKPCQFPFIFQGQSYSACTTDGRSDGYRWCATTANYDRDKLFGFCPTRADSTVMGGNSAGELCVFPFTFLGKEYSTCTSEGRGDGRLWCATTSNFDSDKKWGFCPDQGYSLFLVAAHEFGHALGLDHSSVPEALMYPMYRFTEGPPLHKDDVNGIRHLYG", "assay": "biochemical", "details": "read-out: Average Percent Inhibition (MMP-9)", "method": "A concentration of MMP inhibitor of the present invention was tested (1 microMolar) in duplicate runs. […] The mixture of enzyme and compound in assay buffer was then thoroughly mixed and incubated for 60 minutes at 37 °C. Upon the completion of incubation, the assay was started by the addition of 10 µM of fluorescent substrate DNP-Pro-Cha-Gly-Cys(Me)-His-Ala-Lys(N-Me-Abz)-NH2 [Cha = β -cyclohexylalanyl; Abz = 2-aminobenzoyl (anthraniloyl)] (Kd - 7 microMolar)."}, "[4]": {"details": "0.5 and 2 hours after naloxone precipitated withdrawal and cessation of compound administration, versus control"}, "[5]": {"details": "after discontinuation of compound in naloxone precipitated withdrawal model"}}, "note": "“Also recorded” adds a separate entry of the source."}
{"smiles": "[2H]C([2H])([2H])c1ccc(C#Cc2ccc(S(=O)(=O)N[C@H](Cc3c[nH]c4ccccc34)C(=O)O)s2)cc1", "note": "[Compound 10, (R)-3-(1H-Indol-3-yl)-2-[5-(4-trideuteromethyl-phenylethynyl)-thiophene-2-sulfonylamino]-propionic acid-(D3, 98%)]", "values": [{"measurement": "morphine withdrawal behavior (behavioral signs, overall opiate withdrawal score)", "setting": "CD-1 mice", "value": "able to reduce overall morphine withdrawal behavior; also recorded: significantly attenuates behavioral signs of naloxone-precipitated morphine withdrawal"}, {"measurement": "MMP-9 levels in spinal cord", "setting": "MMP-9; [4]", "value": "stayed the same or were slightly lower than the control"}, {"measurement": "MMP-9 rebound effect due to discontinuation", "setting": "MMP-9; [5]", "value": "No evidence of a MMP-2 and/or MMP-9 rebound effect"}, {"measurement": "MMP-2 levels in spinal cord", "setting": "MMP-2; [4]", "value": "stayed the same or were slightly lower than the control"}, {"measurement": "MMP-2 rebound effect due to discontinuation", "setting": "MMP-2; [5]", "value": "No evidence of a MMP-2 and/or MMP-9 rebound effect"}, {"measurement": "%Mean Remaining Parent with NADPH (%)", "setting": "[1]", "value": 85, "unit": "%"}, {"measurement": "%Mean Remaining Parent without NADPH (%)", "setting": "[1]", "value": 91, "unit": "%"}]}
{"smiles": "Cc1ccc(C#Cc2ccc(S(=O)(=O)N[C@H](Cc3c[nH]c4ccccc34)C(=O)O)s2)cc1", "note": "[Compound 5, (R)-3-(1H-Indol-3-yl)-2-(5-p-tolylethynyl-thiophene-2-sulfonylamino)-propionic acid]", "values": [{"measurement": "Mean Remaining Parent with NADPH (%)", "setting": "[2]; 60 min at 37° C", "value": 86, "unit": "%"}, {"measurement": "Mean Remaining Parent without NADPH (%)", "setting": "[2]; control omitting NADPH, at T = 60 minutes", "value": 89, "unit": "%"}, {"measurement": "inhibition at 1 µM", "setting": "[3]", "value": 82, "unit": "%"}, {"measurement": "%Mean Remaining Parent with NADPH (%)", "setting": "[1]", "value": 83, "unit": "%"}, {"measurement": "%Mean Remaining Parent without NADPH (%)", "setting": "[1]", "value": 88, "unit": "%"}]}
